In patent US11969408B2, “Method for improving mitophagy in subjects” (Amazentis SA, priority 2017, dated 2024):

Experiments:
Type in all cases: in vivo, human
[1] = Plasma pharmacokinetics after single oral dose (clinical study Part A)
Description: Part A: The study was a double-blind, randomized, single ascending doses, study in 24 healthy elderly male and female volunteers. Each subject was randomized for two subsequent doses in three cohorts. Part A: Single oral dose administration on D1 of each period according to the randomisation. The administration took place around 8:00 am with around 200 mL tap water, in sitting position, and under fasting conditions. Cohort 1 (8 subjects): 250 mg urolithin A (6 subjects) or placebo (2 subjects) capsule soft gel formulation then 2000 mg urolithin A or placebo capsule soft gel formulation. Cohort 3 (8 subjects): 1000 mg urolithin A (6 subjects) or placebo (2 subjects) capsule soft gel formulation. After single dosing: Cmax, tmax, AUC0-t, AUC0-∞, t1/2 From the plasma concentration-time data, the following pharmacokinetic parameters will be determined, as data permit using non-compartmental methods: maximum observed plasma concentration (Cmax) (ng/mL), time at which maximum observed plasma concentration (tmax) (h), area under the plasma concentration-time curve AUC(0-24h) (ng/mL*h) and AUC(0-∞) (ng/mL*h), and apparent terminal phase half-life (t1/2) (h). Blood sampling was performed for urolithin A concentration measurements at the exact timepoints with an authorised time window described in the table below: At each time point indicated in the table, a 6 mL blood sample was drawn into K2-EDTA coated tube. The blood samples were gently inverted a few times for complete mixing with the anticoagulant. The exact time of sample collection was recorded on the eCRF. Within 30 minutes following blood collection, each blood sample was centrifuged at 1500 g for 10 minutes at 4° C. From the plasma concentration-time data, the following pharmacokinetic parameters were determined, as data permit using non-compartmental methods: maximum observed plasma concentration (Cmax), time at which maximum observed plasma concentration (tmax), area under the plasma concentration-time curve AUC(0-24h) and AUC(0-∞), and apparent terminal phase half-life (t1/2).

[2] = tested on: genes associated with autophagy and mitophagy, mitochondrial biogenesis and dynamics, and fatty acid oxidation in skeletal muscle biopsies; test: rtPCR analysis of gene expression levels in skeletal muscle biopsies
Description: Muscle biopsies were collected before the meal from the vastus lateralis muscle of the right leg in order to perform ex vivo measurements. Muscle biopsies were collected on Day −1 and Day 28 at pre-dose under fasted state using the Bergström biopsy needle technique. The minimal amount of each muscle tissue sample was approximately 50 mg. One third of the tissue was used for gene expression (≈50 mg), and was further divided into two equal portions: one portion for RNA analysis (≈25 mg) and one portion for DNA analysis (≈25 mg), both in a Safe-lock Tubes 2.0 ml, Eppendorf (part no. 0030.120.094). Muscle tissue was snap frozen using liquid nitrogen immediately after collection and further, long term storage will be in a −80° C. freezer. The mRNA was analysed by microarray. Quantification of mtDNA over nuclear DNA provided another measure of mitochondrial abundance. The shipment was done in dry ice by specialized carrier. Temperatures were monitored using data logger during all transport. The method used has been validated according to good clinical laboratory practices (GCLP) and ICH guideline Q2(R1) (Validation of analytical procedures) by the corresponding service provider. Every sample was analysed in at least technical duplicates for housekeeping and target genes. A Ct value (threshold cycle), corresponding to the cycle at which the fluorescence signal reaches the amplification phase, was determined for every technical replicate and gene. The method of the 2^−ΔΔCt (Livak, K., J., and Schmittgen, T. D., Methods, 2001) was then applied to determine the relative expression of each target gene. rtPCR analysis was carried out on skeletal muscle biopsies of human subjects administered urolithin A or placebo daily for 28 days to determine the expression levels of specific genes associated with autophagy and mitophagy (LAMP2, ULK1, PIK3C3, MAP1LC3B, SQSTM1, PARK2), mitochondrial biogenesis and dynamics (SIRT1, PPARGC1A, PPARA, ESRRA, MFN1, MFN2, OPA1), and fatty acid oxidation (CPT1B, FABP3). FIG. 6 provides bar graphs showing the fold-change in gene expression levels from day −1 to day 28 for each gene for patients administered 250 mg/day or 1000 mg/day urolithin A, over placebo. The bar graphs represent gene expression data, expressed as a percentage of change over placebo, i.e. a value of 0% means that there is no difference between the dose and the placebo group while a value of 100% means that there is an increase in 100% over placebo value.

[3] = Steady state plasma levels of total Urolithin A over 4-week dosing; settings: Day 31 and Day 32
Description: A double-blind, randomized, placebo controlled clinical trial was conducted in healthy elderly to establish the steady state levels of Urolithin A in plasma. Elderly subjects (61-82 years) (n=9), participated in each group of dosing. The subjects met all the inclusion and exclusion criteria of the study and signed informed consent. The subjects were overnight fasted and the plasma was collected in the morning before breakfast to assess steady state levels. Subjects were given a dose of Urolithin or placebo each morning for the 28 day trial. The urolithin A was given as softgel capsules containing 250 mg of Urolithin A in each capsule. Plasma samples were collected for assessment of Urolithin A steady state concentrations in the 4-week Urolithin A study at the following time points (Day 0, Day 7, Day 14, Day 28, Day 29, Day 31, and Day 32). […] On day 28 the subjects were admitted to a Phase 1 clinical trial unit and the kinetics of Urolithin A absorption, and elimination following multiple 4-week dosing were followed until 96 hours following the last dosing on Day 28. Plasma was collected at the following time-points post last dosing with Urolithin A on Day 28: pre-dose, 1 hr, 2 hr, 4 hr, 6 hr, 8 hr, 12 hr, 24 hr, 72 hr and 96 hr. […] The exact time of sample collection was recorded on the eCRF (electronic case report from). […]

[4] = 1000 mg/day for 28 days, over placebo, P<0.05 Dunnett post-hoc

For O=c1oc2cc(O)ccc2c2ccc(O)cc12 [Urolithin A], the “plasma levels of urolithin A per mg dosed (dose-normalised Cmax and AUC)” value ([1]; 1000 mg dosage compared with 2000 mg dosage, single oral dose) was “higher plasma levels”, the Cmax ([1]; both sexes, human, plasma, single oral dose 1000 mg urolithin A, healthy elderly subjects) was 1.92 ng/mL and the AUC ([1]; both sexes, human, plasma, single oral dose 1000 mg urolithin A, healthy elderly subjects, read-out: AUC out to 36 hours) was 15.8 ng·h/mL. The “pharmacokinetics (Cmax and AUC) at 1000 mg compared with 2000 mg” value ([1]; oral administration, 1000 mg vs 2000 mg dosage) was “higher Cmax and AUC”, the “Ulk1 gene expression change” value ([2]; 1000 mg vs placebo, ANOVA p=0.0524, Dunnett p=0.0180) was “close to significant” and the “Ppargc1a gene expression change” value ([2]; 1000 mg vs placebo, ANOVA p=0.1026, Dunnett p=0.0673) was “close to significant”. The “Cpt1b gene expression change” value ([2]; 1000 mg vs placebo, ANOVA p=0.1362, Dunnett p=0.0805) was “close to significant”, the “Park2 gene expression change” value ([2]; 1000 mg vs placebo, ANOVA p=0.2504, Dunnett p=0.1500) was “close to significant” and the “expression of genes associated with autophagy, mitochondrial function, and/or fatty acid oxidation” value ([2]; 1000 mg/day for 28 days, day 28 vs day −1, over placebo) was “upregulation”. The “FABP3 gene expression (fatty acid oxidation-related)” value [2, 4] was “significant upregulation”, the “LAMP2 gene expression (autophagy/mitophagy-related)” value [2, 4] was “significant upregulation” and the “steady state levels after the end of the 4-week UA administration” value [3] was “gradually declined”.
